Drawing on patent US20230117034A1, “PYRAZOLOTRIAZINES” (Bayer Aktiengesellschaft, priority 2019, published 2023), this text covers IC50 and DC50 for eleven compounds.

Some results are limits rather than exact numbers.

In experiment [1] the test system is CAL-120, human breast adenocarcinoma cells. Kind of experiment: Proliferation assay CAL-120 (crystal violet, 4 days). The note with it: Homo sapiens, CAL-120, 96 h, CAL-120 cells, median, read-out: Prolif-CAL-120, IC50-[mol/l] (median). It is filed as cell-based. Put shortly: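 Plated 4,000 cells/well, 10% FCS; 24 h later treated 0.01-10 µmol/L cpd (DMSO 0.1%), 4 d. Fix glutaraldehyde, stain 0.1% crystal violet pH 3.0, elute acetic acid, A595. Normalized to t0 plate/untreated; 4-param IC50.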

In the next experiment the target is CDK12/CycK (Homo sapiens, UniProt Q9NYV4). Kind of experiment: CDK12/CycK high ATP kinase assay (TR-FRET, 2 mM ATP). It is filed as biochemical. The note with it: 2 mM ATP (high ATP); median; read-out: CDK12/CyclinK, 2 mM ATP (high ATP), IC50-[mol/l] (median). Put shortly: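 His-tagged human CDK12/CycK (~0.75 nM) pre-incubated 15 min with compound, then 60 min at 22 °C with 2 mM ATP and 1 µM biotinylated peptide (HEPES pH 7.5, 20 mM MgCl2). EDTA stop; phospho-Ser62 antibody/Eu anti-rabbit and streptavidin-XL665 TR-FRET, 665/620 nm ratio normalised to give IC50.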
Sequence of CDK12/CycK (Q9NYV4 with tags, fused parts or gaps): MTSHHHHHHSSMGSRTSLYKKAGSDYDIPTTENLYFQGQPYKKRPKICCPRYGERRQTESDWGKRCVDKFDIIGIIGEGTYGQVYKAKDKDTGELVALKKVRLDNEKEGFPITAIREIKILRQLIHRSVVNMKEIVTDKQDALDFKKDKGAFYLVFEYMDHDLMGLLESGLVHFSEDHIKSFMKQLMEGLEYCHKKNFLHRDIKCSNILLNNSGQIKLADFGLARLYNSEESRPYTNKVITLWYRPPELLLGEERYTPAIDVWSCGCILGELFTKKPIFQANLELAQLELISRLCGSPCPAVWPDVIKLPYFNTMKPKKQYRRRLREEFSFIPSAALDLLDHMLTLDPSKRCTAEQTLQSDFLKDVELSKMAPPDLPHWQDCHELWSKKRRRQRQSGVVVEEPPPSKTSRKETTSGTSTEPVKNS
Sequence of CDK12/CycK (O75909 1-300 partner limits assumed): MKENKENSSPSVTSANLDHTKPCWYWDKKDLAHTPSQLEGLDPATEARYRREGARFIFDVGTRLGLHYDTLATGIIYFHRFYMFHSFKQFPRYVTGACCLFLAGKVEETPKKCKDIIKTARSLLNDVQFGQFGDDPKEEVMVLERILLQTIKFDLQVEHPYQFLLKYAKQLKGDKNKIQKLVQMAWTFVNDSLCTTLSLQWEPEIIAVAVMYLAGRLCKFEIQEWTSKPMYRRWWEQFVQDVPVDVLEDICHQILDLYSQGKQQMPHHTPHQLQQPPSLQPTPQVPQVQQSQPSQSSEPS

For experiment [2], the target named is T1, CYCLIN K (nuclear staining in CAL-120 cells) (Homo sapiens, UniProt O75909).
T1 construct: endogenous in cells; host or cells: CAL-120 human breast cancer cells (DSMZ ACC 459)
T1 sequence (O75909 whole entry): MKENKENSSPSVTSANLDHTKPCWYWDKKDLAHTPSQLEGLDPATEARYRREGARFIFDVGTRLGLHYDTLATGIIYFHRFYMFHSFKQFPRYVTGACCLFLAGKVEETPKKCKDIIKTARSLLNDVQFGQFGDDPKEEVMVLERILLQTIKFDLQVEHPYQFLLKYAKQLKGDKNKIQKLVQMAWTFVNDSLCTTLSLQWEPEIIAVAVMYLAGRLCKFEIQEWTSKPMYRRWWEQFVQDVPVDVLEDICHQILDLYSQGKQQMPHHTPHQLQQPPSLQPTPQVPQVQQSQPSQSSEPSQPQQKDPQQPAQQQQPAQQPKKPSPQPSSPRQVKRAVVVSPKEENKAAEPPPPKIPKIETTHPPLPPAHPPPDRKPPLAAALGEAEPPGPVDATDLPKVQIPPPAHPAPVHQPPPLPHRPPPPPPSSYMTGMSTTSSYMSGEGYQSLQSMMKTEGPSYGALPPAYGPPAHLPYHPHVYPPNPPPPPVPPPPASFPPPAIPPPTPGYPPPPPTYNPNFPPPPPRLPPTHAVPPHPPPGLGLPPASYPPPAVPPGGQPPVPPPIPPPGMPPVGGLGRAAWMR
T1 sequence (Q9NYV4 whole entry partner): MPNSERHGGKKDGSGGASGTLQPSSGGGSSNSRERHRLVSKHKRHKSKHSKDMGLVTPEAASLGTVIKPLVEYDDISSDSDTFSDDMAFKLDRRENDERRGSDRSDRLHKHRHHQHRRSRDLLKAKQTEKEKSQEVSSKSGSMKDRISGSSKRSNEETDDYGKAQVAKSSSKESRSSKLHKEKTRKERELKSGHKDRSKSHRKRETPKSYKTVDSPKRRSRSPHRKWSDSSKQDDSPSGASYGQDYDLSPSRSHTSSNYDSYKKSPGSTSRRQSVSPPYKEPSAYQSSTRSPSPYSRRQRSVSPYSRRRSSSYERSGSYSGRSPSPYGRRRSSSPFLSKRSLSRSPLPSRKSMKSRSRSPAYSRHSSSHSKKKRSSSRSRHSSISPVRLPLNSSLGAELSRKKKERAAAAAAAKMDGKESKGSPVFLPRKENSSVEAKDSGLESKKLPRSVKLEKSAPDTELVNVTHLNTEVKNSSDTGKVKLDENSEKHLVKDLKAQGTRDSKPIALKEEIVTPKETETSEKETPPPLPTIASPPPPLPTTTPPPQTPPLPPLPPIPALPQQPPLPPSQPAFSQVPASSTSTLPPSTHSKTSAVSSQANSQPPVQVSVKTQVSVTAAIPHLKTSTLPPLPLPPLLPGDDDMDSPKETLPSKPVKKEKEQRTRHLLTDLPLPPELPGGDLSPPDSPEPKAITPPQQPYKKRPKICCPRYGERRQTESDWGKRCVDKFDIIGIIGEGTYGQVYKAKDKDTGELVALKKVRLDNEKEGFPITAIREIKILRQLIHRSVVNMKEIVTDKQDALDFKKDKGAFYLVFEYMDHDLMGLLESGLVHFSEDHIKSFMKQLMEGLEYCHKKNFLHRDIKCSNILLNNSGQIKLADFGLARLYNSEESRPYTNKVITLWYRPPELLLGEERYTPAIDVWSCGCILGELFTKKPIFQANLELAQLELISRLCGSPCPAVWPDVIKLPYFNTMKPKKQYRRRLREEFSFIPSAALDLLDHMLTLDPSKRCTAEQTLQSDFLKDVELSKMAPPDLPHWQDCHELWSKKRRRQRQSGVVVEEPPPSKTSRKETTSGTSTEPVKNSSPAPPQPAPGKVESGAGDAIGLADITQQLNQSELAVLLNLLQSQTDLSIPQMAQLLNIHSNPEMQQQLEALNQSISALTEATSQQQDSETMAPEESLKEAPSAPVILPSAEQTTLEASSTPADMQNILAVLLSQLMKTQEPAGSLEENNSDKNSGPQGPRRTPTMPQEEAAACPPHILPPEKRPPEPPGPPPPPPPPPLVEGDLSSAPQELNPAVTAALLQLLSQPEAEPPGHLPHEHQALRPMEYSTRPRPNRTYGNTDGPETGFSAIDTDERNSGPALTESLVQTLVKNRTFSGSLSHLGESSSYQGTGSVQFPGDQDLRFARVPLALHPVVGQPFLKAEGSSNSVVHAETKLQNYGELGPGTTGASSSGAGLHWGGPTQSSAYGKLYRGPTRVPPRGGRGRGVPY
Kind of experiment: CYCLIN K nuclear protein level: immunofluorescence high content analysis (CAL-120). It is filed as cell-based. The note with it: 24 h, 50% reduction of nuclear CCNK staining intensity, median, read-out: CYCLIN K degradation IF, DC50-[mol/l] (median). Put shortly:
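CAL-120 breast cancer cells treated in dose-response for 24 h at 37 °C, PFA-fixed and immunostained for cyclin K with Hoechst counterstain. Confocal imaging quantified nuclear intensity; DC50 is the concentration giving 50% reduction of nuclear CCNK staining, normalized to DMSO and control.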

Take `Fc1cccc2[nH]c(CNc3nc(N4CCOCC4)nc4c(C5CC5)cnn34)nc12` [Example 188, 8-cyclopropyl-N-[(4-fluoro-1H-benzimidazol-2-yl)methyl]-2-(morpholin-4-yl)pyrazolo[1,5-a][1,3,5]triazin-4-amine]: the values for the IC50 (in experiment [1]; on CDK12/CycK) were 17.6 nM and 581 nM, respectively. Further, the DC50 in experiment [2] turned out to be 0.815 nM.
Taken in the same sequence, the figures for `Fc1cccc2[nH]c(CNc3nc(N4CCNCC4)nc4c(C5CC5)cnn34)nc12` [Example 182, 8-cyclopropyl-N-[(4-fluoro-1H-benzimidazol-2-yl)methyl]-2-(piperazin-1-yl)pyrazolo[1,5-a][1,3,5]triazin-4-amine] were 3.7 nM, 2040 nM and 0.103 nM.
Consider `OC1CCN(c2nc(NCc3nc4ccccc4[nH]3)n3ncc(Br)c3n2)CC1` [Example 17, 1-(4-{[(1H-benzimidazol-2-yl)methyl]amino}-8-bromopyrazolo[1,5-a][1,3,5]triazin-2-yl)piperidin-4-ol], for which, on CDK12/CycK, the IC50 turned out to be 5720 nM. The DC50 in experiment [2] is 4.63 nM.
Consider `CO[C@@H]1CCN(c2nc(NCc3nc4ccccc4[nH]3)n3ncc(Br)c3n2)C1` [Example 223, N-[(1H-benzimidazol-2-yl)methyl]-8-bromo-2-[(3R)-3-methoxypyrrolidin-1-yl]pyrazolo[1,5-a][1,3,5]triazin-4-amine], for which the results for the IC50 (in experiment [1]; on CDK12/CycK) were 270 nM and greater than 16500 nM, respectively.
Taken in the same sequence, the figures for `OC1(C(F)(F)F)CCN(c2nc(NCc3nc4ccccc4[nH]3)n3ncc(Br)c3n2)C1` (stereo not drawn) [Example 200, 1-[4-(1H-benzimidazol-2-ylmethylamino)-8-bromo-pyrazolo[1,5-a][1,3,5]triazin-2-yl]-3-(trifluoromethyl)pyrrolidin-3-ol] were 95.8 nM and 4330 nM.
For the compound `Cc1cc(-c2cnn3c(NCc4nc5ccccc5[nH]4)nc(N4CCN(C)CC4)nc23)ccn1` [Example 243, N-[(1H-benzimidazol-2-yl)methyl]-2-(4-methylpiperazin-1-yl)-8-(2-methylpyridin-4-yl)pyrazolo[1,5-a][1,3,5]triazin-4-amine], the results for the IC50 (in experiment [1]; at CDK12/CycK) were 3670 nM and greater than 20000 nM, respectively.
With `OC1CCCN(c2nc(NCc3nc4ccccc4[nH]3)n3ncc(Br)c3n2)C1` (racemic) [Example 16, (rac)-1-(4-{[(1H-benzimidazol-2-yl)methyl]amino}-8-bromopyrazolo[1,5-a][1,3,5]triazin-2-yl)piperidin-3-ol], the IC50 came to 38.2 nM in experiment [1] and 6940 nM at CDK12/CycK.
Taken in the same sequence, the figures for `CC1(O)CCN(c2nc(NCc3nc4ccccc4[nH]3)n3ncc(Br)c3n2)C1` (stereo not drawn) [Example 225, 1-[4-(1H-benzimidazol-2-ylmethylamino)-8-bromo-pyrazolo[1,5-a][1,3,5]triazin-2-yl]-3-methyl-pyrrolidin-3-ol] were 62.7 nM and 10300 nM.
Taken in the same sequence, the figures for `CCN(C)c1nc(NCc2nc3ccccc3[nH]2)n2ncc(Br)c2n1` [Example 233, N4-(1H-benzimidazol-2-ylmethyl)-8-bromo-N2-ethyl-N2-methyl-pyrazolo[1,5-a][1,3,5]triazine-2,4-diamine] were 158 nM and 7540 nM.
Take `COc1cccc2[nH]c(CNc3nc(N4C[C@H]5C[C@@H]4CO5)nc4c(C5CC5)cnn34)nc12` [Example 198, 8-cyclopropyl-N-[(4-methoxy-1H-benzimidazol-2-yl)methyl]-2-[(1R,4R)-2-oxa-5-azabicyclo[2.2.1]heptan-5-yl]pyrazolo[1,5-a][1,3,5]triazin-4-amine]: the IC50 in experiment [1] was found to be 31.1 nM; at CDK12/CycK, 7480 nM.
Regarding `CC1CN(c2nc(NCc3nc4ccccc4[nH]3)n3ncc(C(C)C)c3n2)CCO1` (racemic) [Example 11, (rac)-N-[(1H-benzimidazol-2-yl)methyl]-2-[2-methylmorpholin-4-yl]-8-(propan-2-yl)pyrazolo[1,5-a][1,3,5]triazin-4-amine], on CDK12/CycK, the IC50 is 3160 nM. In addition, the DC50 in experiment [2] is 14.5 nM.
